Laboratory results from patent US7709649B2, “Multi-substituted pyridyl sulfoximines and their use as insecticides” (Dow AgroSciences LLC, priority 2006, dated 2010).

Experiments:
[1] = test system: green peach aphid (Myzus persicae); experiment: Insecticidal test for green peach aphid in foliar spray assay; assay type: in vivo; parameters: key to GPA 200: % control at 200 ppm against green peach aphid in foliar spray tests / GPA 50: % control at 50 ppm against green peach aphid in foliar spray tests: A: 90-100; B: 80-89; C: 70-79; D: 60-69; E: 50-59; F: Less than 50; G: Inactive; H: Not tested; conditions: foliar spray on cabbage seedlings, 3 days, Corrected % Control (Abbott); for pest or weed control at 50 ppm: Myzus persicae, 72 h, read-out: GPA 50: % control at 50 ppm against green peach aphid in foliar spray tests
Procedure: where • X=No. of live aphids on solvent check plants • Y=No. of live aphids on treated plants Insecticidal Test for Green Peach Aphid (Myzus persicae) in Foliar Spray Assay Cabbage seedlings grown in 3-inch pots, with 2-3 small (3-5 cm) true leaves, were used as test substrate. The seedlings were infested with 20-50 green peach aphids (wingless adult and nymph) 2-3 days prior to chemical application. Four seedlings were used for each treatment. Compounds (2 mg) were dissolved in 2 ml of acetone:methanol (1:1) solvent, forming stock solutions of 1000 ppm. The stock solutions were diluted 5× with 0.025% Tween 20 in H2O to obtain the highest test solution at 200 ppm. A lower test concentration of 50 ppm was prepared by making a 4× dilution from the 200 ppm solution with a diluent consisting 80 parts of 0.025% Tween 20 in H2O and 20 parts of acetone: methanol (1:1). A hand-held Devilbiss sprayer was used for spraying a solution to both sides of cabbage leaves until runoff. Reference plants (solvent check) were sprayed with the diluent only. Treated plants were held in a holding room for three days at approximately 23° C. and 40% RH prior to grading. Evaluation was conducted by counting the number of live aphids per plant under a microscope. Insecticidal activity was measured by using Abbott's correction formula: Corrected % Control=100*(X−Y)/X where • X=No. of live aphids on solvent check plants • Y=No. of live aphids on treated plants The Corrected % Control values from the above assays are given in Table 1.

[2] = test system: cotton aphid (Aphis gossypii); experiment: Insecticidal test for cotton aphid in foliar spray assay; assay type: in vivo; conditions: for pest or weed control at 50 ppm / pest or weed control at 200 ppm: Aphis gossypii, 72 h, foliar spray on squash, 3 days, Corrected % Control (Abbott), Table 1; for pest or weed control at 50 ppm: read-out: CA 50: % control at 50 ppm against cotton aphid in foliar spray tests; for pest or weed control at 200 ppm: read-out: CA 200: % control at 200 ppm against cotton aphid in foliar spray tests; for CA 0.78: % Control at ppm against cotton aphid (foliar spray): 0.78 ppm; for CA 0.78: % Control at ppm against cotton aphid (foliar spray) / CA 3.13: % Control at ppm against cotton aphid (foliar spray) / CA 12.5: % Control at ppm against cotton aphid (foliar spray) / CA 50: % Control at ppm against cotton aphid (foliar spray): rundown assay, Table 2; for CA 3.13: % Control at ppm against cotton aphid (foliar spray): 3.13 ppm; for CA 12.5: % Control at ppm against cotton aphid (foliar spray): 12.5 ppm; for pest or weed control at 50 ppm / CA 50: % Control at ppm against cotton aphid (foliar spray): 50 ppm
Procedure: Insecticidal Test for Cotton Aphid (Aphis gossypii) in Foliar Spray Assay Squash with fully expanded cotyledon leaves were trimmed to one cotyledon per plant and infested with cotton aphid (wingless adult and nymph) 1 day prior to chemical application. Each plant was examined before chemical application to ensure proper infestation (ca. 30-70 aphids per plant). Compounds (2 mg) were dissolved in 2 ml of acetone:methanol (1:1) solvent, forming stock solutions of 1000 ppm. The stock solutions were diluted 5× with 0.025% Tween 20 in H2O to obtain the highest test solution at 200 ppm. Lower test concentrations (50, 12.5, 3.13 and 0.78 ppm) were prepared by making sequential 4× dilutions from the 200 ppm solution with a diluent consisting 80 parts of 0.025% Tween 20 in H2O and 20 parts of acetone:methanol (1:1). A hand-held Devilbiss sprayer was used to apply the spray solutions until runoff to both sides of the squash cotyledon leaves. Four plants (4 replications) were used for each concentration of each compound. Reference plants (solvent check) were sprayed with the diluent only. Treated plants were held in a holding room for 3 days at approximately 23° C. and 40% RH before the number of live aphids on each plant was recorded. Insecticidal activity was measured by Corrected % Control using Abbott's correction formula: Corrected % Control=100*(X−Y)/X where • X=No. of live aphids on solvent check plants • Y=No. of live aphids on treated plants Insecticidal Test for Green Peach Aphid (Myzus persicae) in Foliar Spray Assay

## COc1cc(CS(C)(=O)=NC#N)cnc1Cl (centres unmarked) [Compound 5, [(5-methoxy-6-chloropyridin-3-yl)methyl](methyl)-oxido-λ^4-sulfanylidenecyanamide]
[1]
  GPA 50: % control at 50 ppm against green peach aphid in foliar spray tests: G
  GPA 200: % control at 200 ppm against green peach aphid in foliar spray tests: G
other
  melting point: 123 to 125 °C
[2]
  pest or weed control at 50 ppm: 70 to 79%
  pest or weed control at 200 ppm: 90 to 100%

## CSc1ncc(C(C)S(C)(=O)=NC#N)cc1F (centres unmarked) [Compound 4, [1-(5-fluoro-6-methylthioyridin-3-yl)ethyl]-(methyl)-oxido-λ^4-sulfanylidenecyanamide]
[1]
  GPA 50: % control at 50 ppm against green peach aphid in foliar spray tests: G
  GPA 200: % control at 200 ppm against green peach aphid in foliar spray tests: G
[2]
  pest or weed control at 50 ppm: 80 to 89%
  pest or weed control at 200 ppm: 90 to 100%

## CS(=O)(Cc1cnc(Cl)c(F)c1)=NC#N (centres unmarked) [Compound 2, [(5-fluroro-6-chloropyridin-3-yl)methyl](methyl)-oxido-λ^4-sulfanylidenecyanamide]
[1]
  GPA 200: % control at 200 ppm against green peach aphid in foliar spray tests: B (80-89)
  pest or weed control at 50 ppm: 50 to 59%
[2]
  CA 0.78: % Control at ppm against cotton aphid (foliar spray): A (90-100)
  CA 3.13: % Control at ppm against cotton aphid (foliar spray): A (90-100)
  CA 12.5: % Control at ppm against cotton aphid (foliar spray): A (90-100)
  CA 50: % Control at ppm against cotton aphid (foliar spray): A (90-100)
  pest or weed control at 50 ppm: 90 to 100%
  pest or weed control at 200 ppm: 90 to 100%

## CC(c1cnc(Cl)c(F)c1)S(C)(=O)=NC#N (centres unmarked) [Compound 3, [1-(5-fluoro-6-chloropyridin-3-yl)ethyl](methyl)-oxido-λ^4-sulfanylidenecyanamid]
[1]
  GPA 200: % control at 200 ppm against green peach aphid in foliar spray tests: A (90-100)
  pest or weed control at 50 ppm: 80 to 89%
[2]
  CA 0.78: % Control at ppm against cotton aphid (foliar spray): A (90-100)
  CA 3.13: % Control at ppm against cotton aphid (foliar spray): A (90-100)
  CA 12.5: % Control at ppm against cotton aphid (foliar spray): A (90-100)
  CA 50: % Control at ppm against cotton aphid (foliar spray): A (90-100)
  pest or weed control at 50 ppm: 90 to 100%
  pest or weed control at 200 ppm: 90 to 100%

## COc1cc(C(C)S(C)(=O)=NC#N)cnc1Cl (centres unmarked) [Compound 6, [1-(5-methoxy-6-chloropyridin-3-yl)ethyl](methyl)-oxido-λ^4-sulfanylidenecyanamide]
[1]
  GPA 50: % control at 50 ppm against green peach aphid in foliar spray tests: G
  GPA 200: % control at 200 ppm against green peach aphid in foliar spray tests: G
[2]
  pest or weed control at 50 ppm: 60 to 69%
  pest or weed control at 200 ppm: 90 to 100%

## CS(=O)(Cc1cnc(Cl)cc1Cl)=NC#N (centres unmarked) [Compound 9, [(4,6-dichloropyridin-3-yl)methyl](methyl)-oxido λ^4-sulfanylidenecyanamide]
[1]
  GPA 50: % control at 50 ppm against green peach aphid in foliar spray tests: G
[2]
  pest or weed control at 50 ppm: 90 to 100%
  pest or weed control at 200 ppm: 90 to 100%

## CS(=O)(Cc1cnc(Cl)c(Br)c1)=NC#N (centres unmarked) [Compound 7, [(5-bromo-6-chloropyridin-3-yl)methyl](methyl)-oxido-λ^4-sulfanylidenecyanamide]
[1]
  GPA 50: % control at 50 ppm against green peach aphid in foliar spray tests: G
  GPA 200: % control at 200 ppm against green peach aphid in foliar spray tests: G
[2]
  pest or weed control at 50 ppm: 90 to 100%
  pest or weed control at 200 ppm: 90 to 100%

## CS(=O)(Cc1cnc(Cl)c(Cl)c1)=NC#N (centres unmarked) [Compound 1, [(5,6-dichloropyridin-3-yl)methyl](methyl)-oxido λ^4-sulfanylidenecyanamide]
[1]
  GPA 50: % control at 50 ppm against green peach aphid in foliar spray tests: G
[2]
  pest or weed control at 50 ppm: 90 to 100%
  pest or weed control at 200 ppm: 90 to 100%

## CC(c1cnc(Cl)c(Br)c1)S(C)(=O)=NC#N (centres unmarked) [Compound 8, [1-(5-bromo-6-chloropyridin-3-yl)ethyl](methyl)-oxido-λ^4-sulfanylidenecyanamide]
[1]
  GPA 50: % control at 50 ppm against green peach aphid in foliar spray tests: G
  GPA 200: % control at 200 ppm against green peach aphid in foliar spray tests: B (80-89)
[2]
  CA 0.78: % Control at ppm against cotton aphid (foliar spray): E (50-59)
  CA 3.13: % Control at ppm against cotton aphid (foliar spray): A (90-100)
  CA 12.5: % Control at ppm against cotton aphid (foliar spray): A (90-100)
  CA 50: % Control at ppm against cotton aphid (foliar spray): A (90-100)
  pest or weed control at 50 ppm: 90 to 100%
  pest or weed control at 200 ppm: 90 to 100%
